Legend:
C. dubliniensis = type: cell-based
Protocol: (§1) The antimicrobial activities against clinical isolates and drug-resistant strains of P-113 and its derived peptides were examined. The present invention evaluated the effect of P-113 on 15 clinical isolates of fungi belonging to the genus Candida (see Table 1). Clinical isolates were cultivated overnight at 30° C. under shaking in a YPD cultural broth (1% yeast extract, 2% peptone and 2% glucose), cells were centrifuged and washed with YPD, then cultivated again in a YPD culture broth allowing to grow for 5 hours (initial optical density at 600 nm [OD600]˜0.5). Cells were washed with PBS and then collected by centrifugation, redissolved in a culture broth (modified RPMI 1640 medium, LYM), the cell concentration was adjusted to ˜0.1 [OD600]/ml and then treated with P-113. After the mixed solution was cultivated under shaking at 37° C. and 5% CO2 for 24 hours, absorbance measurement (OD value) was performed to determine the minimum inhibitory concentration (MIC).

C. parapsilosis = type: cell-based
Protocol: as §1

[1] = Circular dichroism secondary structure in 85% TFE, BeStSel analysis; type: physicochemical; settings: CD analyzed by BeStSel
Protocol: The present invention utilized a Circular Dichroism Spectrometer (AVIV Company) to observe the secondary structure of the antimicrobial peptides. Circular dichoism spectra of P-113 and its derivatives were recorded over the wavelength range of 195-260 nm with readings every 1 nm by using a quartz cuvette having 1 mm optical path length. Ellipticities were represented as mean residue molar ellipticity (MRE). P-113, P-113Du and P-113Tri were dissolved in 85% trifluoroethanol (TFE) solution.

[2] = tested on: Wild type (WT) Candida albicans; experiment: Salt and pH tolerance of candidacidal activity; type: cell-based
Protocol: Wild type (WT) Candida albicans was cultivated in a YPD medium at 30° C. overnight and then transferred to 5 ml of fresh YPD culture broth, cultivated subsequently for another 5 hours. After the fungi were collected by centrifugation, washed with 12.5 mM sodium acetate twice, redissolved with 12.5 mM NaOAc to yield a fungal concentration of 1.5×10^6 cells/ml. Fifty microliters of liquid fungal suspension was taken out to mix with 50 μl of sequentially diluted antimicrobial peptides and placed in different wells of a 96-well plate allowing to react for 1 hour at 37° C. (as shown in FIG. 4(A). Then, 50 μl of liquid fungal mixture was taken out and 450 μl PBS was added to terminate the reaction. Finally, 25 μl was taken out and inoculated on a solid YPD medium.

[3] = tested on: Wild type (WT) Candida albicans; experiment: Candidacidal activity against cell suspension, colony count; type: cell-based; settings: 37° C., 1 hour
Protocol: Wild type (WT) Candida albicans was cultivated in a YPD medium at 30° C. overnight and then transferred to 5 ml of fresh YPD culture broth, subsequently cultivated for another 5 hours. After being collected by centrifugation, the fungi were washed with sodium acetate (12.5 mM) twice, redissolved with 12.5 mM sodium acetate to yield a fungal concentration of 1.5×10^5 cells/ml. 50 μl of liquid fungal suspension was taken out to be mixed with 50 μl of sequence-diluted antimicrobial peptide and placed in different wells of a 96-well plate, allowing to react (37° C.) for 1 hour (as shown in FIG. 4(A)). Then, 20 μl of fungal liquid mixture was added into 780 μl of PBS to terminate the reaction. Finally, 50 μl was taken out and inoculated on a solid YPD medium, cultivated at 30° C. for 24 hours, then the number of colonies were counted.

[4] = tested on: Candida albicans strain SC5314 biofilms; experiment: Biofilm cell viability, XTT reduction assay; type: cell-based; settings: biofilm cells, 37° C., 1 hr
Protocol: Candida albicans strain SC5314 was cultivated in a YPD medium overnight and then transferred to a fresh YPD culture broth, diluted until the concentration was 3×10^5 cells/ml. 100 μl of liquid fungal suspension was placed in a 96-well plate for cultivation at 37° C. for 24 hours, formed biofilms were washed with sodium acetate (12.5 mM). Then, sequence-diluted antimicrobial peptides P-113, P-113Du and P-113Tri (0-200 μM) were added, reacted at 37° C. for 1 hour, washed with PBS twice. The cellular activity of the biofilms was determined by using XTT (2,3-bis(2-methoxy-4-nitro-5-sulfophenyl)-2H-tetrazolium-5-carboxanilide) reduction assays to analyze the cell survival rate. To perform this reaction, XTT (0.5 mg/ml) and Menadione (0.5 μM) were dissolved in PBS and then added into a 96-well plate formed by biofilms, reacted at 30° C. for 30 minutes, the optical density was measured at wavelength 490 nm (OD490). The cellular activity of the biofilms was represented as a percentage.

Enterobacter aerogenes = experiment: Antimicrobial effect against bacteria (MIC); type: cell-based; settings: strain ATCC 13048
Protocol: (§2) Wild type (WT) Pseudomonas aeruginosa, Klebsiella pneumoniae, Enterobacter aerogenes, Staphylococcus aureus were cultivated overnight in LB medium at 37° C., then transferred to 5 ml of fresh LB culture broth, cultivated again for another 3 hours. Bacteria were collected by centrifugation, washed with sodium acetate (12.5 mM) twice, redissolved with 12.5 mM sodium acetate until the concentration was 1.5×10^5 cells/ml. Mixed with sequential-diluted anti-bacterial peptides, seeded in different wells of a 96-well plate allowing to react for 1 hour. Then, 20 μl of liquid bacterial mixture was taken out to mix with 780 μl of PBS (Phosphate-buffered saline) to terminate the reaction. 50 μl was then taken out and inoculated on a solid medium, after being cultivated at 30° C. for 24 hours, formed colonies were observed.

Klebsiella pneumoniae = experiment: Antimicrobial effect against bacteria (MIC); type: cell-based; settings: strain CG43
Protocol: as §2

Pseudomonas aeruginosa = experiment: Antimicrobial effect against bacteria (MIC); type: cell-based; settings: strain PAO1, ATCC 15692
Protocol: as §2

Staphylococcus aureus = experiment: Antimicrobial effect against bacteria (MIC); type: cell-based; settings: strain ATCC 33591
Protocol: as §2

[5] = tested on: SC5314 strain of Candida albicans; experiment: Effect of cell wall disrupting agents on peptide activity, CFU; type: cell-based; settings: Proteinase K 1 mg/ml, 30 min
Protocol: The SC5314 strain of Candida albicans (wild type or WT) were grown overnight in YPD broth at 30° C. The overnight culture was then subcultured into fresh YPD medium and grown for 5 h. Cells were treated with Proteinase K (1 mg/ml) for 30 min or Zymolyase (5 mg/ml) for 1 h at 30° C., followed by reacting with different concentrations of the peptides for 1 h, respectively. After that, samples were serially diluted in phosphate-buffered saline (PBS) and 15 μl of each diluent was spotted onto YPD agar plates. Colony-forming units were counted after incubation at 30° C. for 24 h. The data were represented as the mean values±SD of three independent experiments.

och1Δ mutant strain = experiment: Susceptibility of och1Δ mutant, CFU; type: cell-based, Candida albicans; settings: och1Δ versus SN250, 1 h
Protocol: The SN250 and och1Δ mutant strains were grown overnight in YPD broth at 30° C. The overnight culture was then subcultured into fresh YPD medium and grown for 5 h. Cells were treated with different concentration of peptides for 1 h. After treatment, samples were serially diluted in PBS and 15 μl of each diluent was spotted onto YPD agar plates. Colony-forming units were counted after 24 h incubation at 30° C. The data were represented as the mean values±SD of three independent experiments.

[6] = tested on: SC5314 strain of Candida albicans; experiment: Intracellular ROS assay (DHE, MitoSOX Red, flow cytometry); type: cell-based; settings: 0.25 μM, 1 h, 37° C.
Protocol: The SC5314 strain of Candida albicans (wild type or WT) were grown overnight in YPD broth at 30° C. The overnight culture was then subcultured into fresh YPD medium and grown for 5 h. Cells were harvested by centrifugation, washed twice with 12.5 mM sodium acetate (NaOAc) and resuspended in 12.5 mM NaOAc to a concentration of 1*10^7 cells/ml. The cells were treated with various AMPs (0.25 μM) for 1 h at 37° C. After treatment, cells were washed twice with 12.5 mM NaOAc. Dihydroethidium (DHE) is a superoxide indicator, and MitoSOX Red (MitoSOX) was introduced for selective detection of superoxide in the mitochondria of live cells. The intracellular ROS was measured using DHE (20 μM) staining for 30 min and MitoSOX Red (5 μM) for 60 min in PBS. Fluorescent detection was performed by flow cytometry.

Compound	Minimum Inhibitory Concentration (C. dubliniensis)	Minimum Inhibitory Concentration (C. parapsilosis)	content of the α-helical secondary structure [1]	candidacidal activity ([2]; 93.75 mM sodium acetate)	candidacidal activity ([2]; pH 4.5, 6, and 8)	activity for killing fungus compared with P-113 [3]	concentration causing 50% reduction in the metabolic activity (50% RMA) [4]	Minimum Inhibitory Concentration (MIC) (Enterobacter aerogenes)	Minimum Inhibitory Concentration (MIC) (Klebsiella pneumoniae)	Minimum Inhibitory Concentration (MIC) (Pseudomonas aeruginosa)	Minimum Inhibitory Concentration (MIC) (Staphylococcus aureus)	candidacidal activity after proteinase K treatment of cells [5]	susceptibility of och1Δ mutant to peptide (och1Δ mutant strain)	intracellular ROS formation [6]	antifungal activity in the high salt environment ([2]; 62.5 and 93.75 mM)	ROS-inducing ability, rank among peptides [6]
C[C@H](N)C(=O)N[C@@H](CCCCN)C(=O)N[C@@H](CCCNC(=N)N)C(=O)N[C@@H](Cc1c[nH]cn1)C(=O)N[C@@H](Cc1c[nH]cn1)C(=O)NCC(=O)N[C@@H](Cc1ccc(O)cc1)C(=O)N[C@@H](CCCCN)C(=O)N[C@@H](CCCNC(=N)N)C(=O)N[C@@H](CCCCN)C(=O)N[C@@H](Cc1ccccc1)C(=O)N[C@@H](Cc1c[nH]cn1)C(=O)N[C@@H](C)C(=O)N[C@@H](CCCCN)C(=O)N[C@@H](CCCNC(=N)N)C(=O)N[C@@H](Cc1c[nH]cn1)C(=O)N[C@@H](Cc1c[nH]cn1)C(=O)NCC(=O)N[C@@H](Cc1ccc(O)cc1)C(=O)N[C@@H](CCCCN)C(=O)N[C@@H](CCCNC(=N)N)C(=O)N[C@@H](CCCCN)C(=O)N[C@@H](Cc1ccccc1)C(=O)N[C@@H](Cc1c[nH]cn1)C(N)=O [P-113Du]	3.10 µg/mL	0.78 µg/mL	10.6%	potent candidacidal activity	consistent candidacidal activity	stronger activity for killing fungus than P-113	51.54 µg/mL	25 mg/L	12.5 mg/L	3.125 mg/L	25 mg/L	failed to kill C. albicans	resistant	induced intracellular ROS formation	–	–
C[C@H](N)C(=O)N[C@@H](CCCCN)C(=O)N[C@@H](CCCNC(=N)N)C(=O)N[C@@H](Cc1c[nH]cn1)C(=O)N[C@@H](Cc1c[nH]cn1)C(=O)NCC(=O)N[C@@H](Cc1ccc(O)cc1)C(=O)N[C@@H](CCCCN)C(=O)N[C@@H](CCCNC(=N)N)C(=O)N[C@@H](CCCCN)C(=O)N[C@@H](Cc1ccccc1)C(=O)N[C@@H](Cc1c[nH]cn1)C(=O)N[C@@H](C)C(=O)N[C@@H](CCCCN)C(=O)N[C@@H](CCCNC(=N)N)C(=O)N[C@@H](Cc1c[nH]cn1)C(=O)N[C@@H](Cc1c[nH]cn1)C(=O)NCC(=O)N[C@@H](Cc1ccc(O)cc1)C(=O)N[C@@H](CCCCN)C(=O)N[C@@H](CCCNC(=N)N)C(=O)N[C@@H](CCCCN)C(=O)N[C@@H](Cc1ccccc1)C(=O)N[C@@H](Cc1c[nH]cn1)C(=O)N[C@@H](C)C(=O)N[C@@H](CCCCN)C(=O)N[C@@H](CCCNC(=N)N)C(=O)N[C@@H](Cc1c[nH]cn1)C(=O)N[C@@H](Cc1c[nH]cn1)C(=O)NCC(=O)N[C@@H](Cc1ccc(O)cc1)C(=O)N[C@@H](CCCCN)C(=O)N[C@@H](CCCNC(=N)N)C(=O)N[C@@H](CCCCN)C(=O)N[C@@H](Cc1ccccc1)C(=O)N[C@@H](Cc1c[nH]cn1)C(N)=O [P-113Tri]	3.10 µg/mL	0.78 µg/mL	21.4%	potent candidacidal activity	consistent candidacidal activity	stronger activity for killing fungus than P-113	43.245 µg/mL	12.5 mg/L	6.25 mg/L	3.125 mg/L	25 mg/L	failed to kill C. albicans	still sensitive	induced intracellular ROS formation	maintained strong antifungal activity	strongest ROS-inducing ability
LL-37: the control peptide (LLGDFFRKSKEKIGKEFKRIVQRIKDFLRNLVPRTES; Antibacterial peptide LL-37; UniProt P49913 134-170, looked up) [reference compound]	–	–	–	–	–	–	–	–	–	–	–	can still kill C. albicans cells	resistant	–	–	–

— US10183059B2, “Method for treating microbial infection” (GENERAL BIOLOGICALS CORPORATION, priority 2015, dated 2019)
